Marks after values point to notes of the source that are not given here. Peptide text beside a SMILES is read from it. * marks the point of attachment. X84 = O=C1C=CC(=O)N1c1ccccc1CCCCCCCCCCCCC(=O)*; X79 = O=C1C=CC(=O)N1c1cccc(CCC(=O)*)c1; X75 = O=C1C=CC(=O)N1c1cccc(CC(=O)*)c1
Columns and labels:
[1] = tested on: collagen-induced arthritis; experiment: Mouse collagen-induced arthritis (CIA) animal model; type: in vivo; conditions: DBA/1 mice CIA model, dose 4.0 mg/kg, subcutaneous from day 30, n=10; for Clinical score: highest score 16
[2] = tested on: splenic lymphocytes; experiment: Proliferation of splenic lymphocytes in mice (ConA, MTT); type: cell-based; conditions: ConA-stimulated mouse splenic lymphocytes, 48 h
Procedure, shortened: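 Mouse splenocytes (5×10^6 cells/mL, RPMI 1640 with 10% calf serum, red cells lysed) stimulated with ConA plus varying polypeptide concentrations, with blank, ConA-only and Dex groups, 48 h at 37° C. MTT added for 4 h, formazan dissolved in DMSO, OD read at 570 nm; five replicates.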

[3] = tested on: adjuvant arthritis; experiment: Rat adjuvant arthritis (AA) animal model; type: in vivo, SD rats; conditions: 4.0 mg/kg; for Clinical score: intravenous in the tail once every five days from day 10, four paws scored 0-4, max 16, mean±SD; for Joint swelling degree / Left and right paw swelling degree: intravenous in the tail once every five days from day 10, mean±SD
[4] = tested on: retinal vascular endothelial nuclei; experiment: Neovascularization in a rat model of premature retinopathy; type: in vivo, rats; conditions: dose 0.05 μM in the vitreous chamber from day 7 of modeling for one week; counted on day 14; oxygen-induced neonatal rats
Procedure: Using a fluctuating oxygen-induced animal model, newborn rats born naturally on the same day (within 12 h) were randomly divide into three groups: an oxygen model group, an oxygen treatment group and a normal control group. The oxygen model was further divided into three sub-group model groups, and the sub-group model groups and the treatment group were all placed in a semi-closed oxygen chamber made of organic glass; medical oxygen was introduced into the chamber, and the concentration was adjusted to 80%±2% by an oxygen meter; nitrogen was introduced into the oxygen chamber after 24 h, and the oxygen concentration was adjusted to 10%±2% rapidly and maintained for 24 h. This was repeated to keep the oxygen concentration in the oxygen chamber alternating between 80% and 10% every 24 h, the oxygen concentration was maintained for 7 d, and then the rats were fed in the air. The oxygen concentration was monitored 8 times a day, and the ambient temperature in the chamber was controlled at 23° C.±2° C. Bedding was replaced, feed was added, and water and mother rats were replaced once. The normal control group was placed in the animal room feeding environment. […] The oxygen treatment group was divided into three subgroups. On day 7 of modeling, X1-[…], […]-[…] and […]-X90 were injected in the vitreous chamber respectively, and the oxygen model group and the control group were only given normal saline for one week. On day 14, after the rats were anesthetized by diethyl ether and killed, eyeballs were extracted and fixed in 40 g/L paraformaldehyde solution for 24 h. Gradient dehydration by alcohol was performed, and the eyeballs were processed by xylene to be transparent. After waxing, the eyeballs were sectioned continuously to a thickness of 4μm, and the periphery of the optic disc should be avoided as much as possible. The sections were parallel to the sagittal plane from cornea to the optic disc. Ten sections of each eyeball were randomly taken and stained with hematoxylin eosin, the number of vascular endothelial nuclei that broke through the inner limiting membrane of the retina (only the number of vascular endothelial nuclei closely related to the inner limiting membrane were counted) was counted, and statistics of the average number of cells per section per eyeball was performed. Results: In the control group, there were no vascular endothelial nuclei that broke through the inner limiting membrane of the retina and grew into vitreous body, or the vascular endothelial nuclei were occasionally found in only a few sections. In the model group, there were many vascular endothelial nuclei that broke through the inner limiting membrane of the retina, some appeared alone, and some appeared in clusters. At the same time, on some sections, these vascular endothelial nuclei were also found adjacent to deep retinal vessels, confirming that they originated from the retina rather than the vitreous body or other ocular tissues. In the treatment group, only a few vascular endothelial nuclei that broke through the inner limiting membrane of retina could be seen in the sections.

[5] = tested on: human retinal capillary endothelial cells (HRCECs); experiment: MTT proliferation inhibition on HRCECs; type: cell-based; conditions: 48 h; for A570 nm-A630 nm: mean±SD
Procedure, shortened: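 HRCECs seeded at 3.0×10^4 cells/mL, adhered overnight, then exposed to polypeptide for 48 h at 37 °C, 5% CO2. MTT added 4 h, formazan dissolved in DMSO, absorbance 570/630 nm; PIR (%) = 1 − treated/negative control, mean±SD of three independent runs.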

| SMILES | Joint swelling degree (mm) [1] [mm] | Left and right paw swelling degree (mm) [1] [mm] | Clinical score [1] | A570 nm/A630 nm ([2]; polypeptide dose 0.05 μM) | Inhibition rate (%) ([2]; polypeptide dose 0.05 μM) | A570 nm/A630 nm ([2]; polypeptide dose 0.1 μM) | Inhibition rate (%) ([2]; polypeptide dose 0.1 μM) | A570 nm/A630 nm ([2]; polypeptide dose 0.2 μM) | Inhibition rate (%) ([2]; polypeptide dose 0.2 μM) | Clinical score [3] | Joint swelling degree [3] [mm] | Left and right paw swelling degree [3] [mm] | Nuclei count (retinal vascular endothelial nuclei, average per section per eyeball) [4] | Inhibition rate (%) ([5]; dose 0.05 μM) [%*] | A570 nm-A630 nm ([5]; dose 0.05 μM) | Inhibition rate (%) ([5]; dose 0.1 μM) [%**] | A570 nm-A630 nm ([5]; dose 0.1 μM) | Inhibition rate (%) ([5]; dose 0.2 μM) [%*] | A570 nm-A630 nm ([5]; dose 0.2 μM) |
| --- | --- | --- | --- | --- | --- | --- | --- | --- | --- | --- | --- | --- | --- | --- | --- | --- | --- | --- | --- |
| C[C@H](NC(=O)CNC(=O)[C@H](CCCNC(=N)N)NC(=O)CCCCCCCCCCCCc1ccccc1N1C(=O)C=CC1=O)C(=O)N[C@@H](CC(=O)O)C(=O)N[C@@H](CCCNC(=N)N)C(=O)N[C@@H](C)C(=O)NCC(=O)NCC(=O)NCC(=O)NCC(=O)N[C@@H](CCCNC(=N)N)C(=O)NCC(=O)N[C@@H](CC(=O)O)C(=O)O [X24] (X84-RGADRAGGGGRGD-OH) | 0.82 ± 0.11 | 0.71 ± 0.12 | 8.94 ± 1.41 | 0.5823 ± 0.0474 | 14.12 | 0.5615 ± 0.1155 | 16.86 | 0.5142 ± 0.0636 | 23.87 | 5.73 ± 1.15 | 0.76 ± 0.15 | 3.94 ± 0.70 | 7.699 ± 3.108 | 40.01 | 0.7929 ± 0.02399 | 44.87 | 0.7286 ± 0.00571 | 49.60 | 0.6661 ± 0.02372 |
| C[C@H](NC(=O)CNC(=O)[C@H](CCCNC(=N)N)NC(=O)Cc1cccc(N2C(=O)C=CC2=O)c1)C(=O)N[C@@H](CC(=O)O)C(=O)N[C@@H](CCCNC(=N)N)C(=O)N[C@@H](C)C(=O)NCC(=O)NCC(=O)NCC(=O)NCC(=O)N[C@@H](CCCNC(=N)N)C(=O)NCC(=O)N[C@@H](CC(=O)O)C(=O)O [X25] (X75-RGADRAGGGGRGD-OH) | 0.71 ± 0.18 | 0.74 ± 0.14 | 9.21 ± 1.33 | 0.5838 ± 0.0861 | 13.56 | 0.5673 ± 0.0906 | 16.01 | 0.4576 ± 0.1221 | 32.25 | 5.72 ± 1.11 | 0.71 ± 0.16 | 3.76 ± 0.09 | 8.923 ± 1.954 | 50.23 | 0.6578 ± 0.08044 | 54.21 | 0.6052 ± 0.09358 | 63.33 | 0.4847 ± 0.06551 |
| C[C@H](NC(=O)CNC(=O)[C@H](CCCNC(=N)N)NC(=O)CCc1cccc(N2C(=O)C=CC2=O)c1)C(=O)N[C@@H](CC(=O)O)C(=O)N[C@@H](CCCNC(=N)N)C(=O)N[C@@H](C)C(=O)NCC(=O)NCC(=O)NCC(=O)NCC(=O)N[C@@H](CCCNC(=N)N)C(=O)NCC(=O)N[C@@H](CC(=O)O)C(=O)O [X26] (X79-RGADRAGGGGRGD-OH) | 0.71 ± 0.14 | 0.84 ± 0.12 | 9.07 ± 1.32 | 0.5714 ± 0.1002 | 15.46 | 0.5365 ± 0.0543 | 20.57 | 0.4991 ± 0.0743 | 26.10 | 5.65 ± 1.07 | 0.74 ± 0.18 | 3.81 ± 0.59 | 8.343 ± 2.131 | 41.47 | 0.7736 ± 0.06908 | 48.48 | 0.6810 ± 0.02943 | 68.51 | 0.4162 ± 0.00082 |
